{"source": "patent US20210017231A1", "about": "“ATP1A1-TARGETING POLYPEPTIDE AND USE THEREOF” (SUN YAT-SEN UNVIERSITY CANCER CENTER (SYSUCC), priority 2017, published 2021)", "key": {"[1]": {"tested_on": "breast cancer MDA-MB-231 tumors", "assay": "Infrared fluorescent molecular imaging of breast cancer tumor-bearing mice", "format": "in vivo", "source_text": "Tumor-bearing mice were used for the infrared fluorescence molecular imaging experiment to detect the distribution of Cy5-S3 (Cy5-SEQ ID NO:1) fluorescent peptide in various organs and tumors of the tumor-bearing mice. The experimental procedure of the imaging experiment of small living animals was as follows: 1) taking out nine male NOD SCID mice of 4-week old; 2) digesting breast cancer MDA-MB-231 cells with trypsin, counting, and adjusting the concentration to be 5.0×10^7 cells/ml, resuspending the cells with 20% Matrigel DMEM, and injecting with 200 μl/mouse; 3) observing tumor formation for 1-2 weeks, measuring the sizes of the tumors, and randomizing the mice into three groups according to the sizes of the tumors, i.e. […] 4) dissolving 300 μg fluorescent peptides in 200 μl PBS, injecting the fluorescent peptides into the tail veins of the mice, and dynamically detecting the distribution of the fluorescent peptides in various organs and tumors of the nude mice by using a small living animal imaging instrument. 5) taking out every organ and tumor, homogenizing, measuring the fluorescence intensity of each organ and tumor, and making statistical analysis."}, "[2]": {"tested_on": "esophageal cancer KYSE30 tumor", "assay": "Infrared fluorescent molecular imaging of esophageal cancer tumor-bearing mice", "format": "in vivo", "conditions": "48 hours after tail vein injection, FIGS. 2D, 2E", "source_text": "(§1) According to the above procedure, the Cy5-S3 (Cy5-SEQ ID NO:1) fluorescent peptides were applied in esophageal cancer KYSE30 tumor-bearing and nasopharyngeal carcinoma CNE2 mouse models, in order to detect whether Cy5-S3 (Cy5-SEQ ID NO:1) fluorescent peptide can be imaged with infrared fluorescent molecular imaging in other tumors."}, "[3]": {"tested_on": "nasopharyngeal carcinoma CNE2 tumor", "assay": "Infrared fluorescent molecular imaging of nasopharyngeal carcinoma mouse model", "format": "in vivo, mice", "conditions": "48 hours after tail vein injection, FIG. 2F", "source_text": "as §1"}, "[4]": {"tested_on": "breast cancer MDA-MB-231 cells", "assay": "Flow cytometry binding of fluorescent peptide to cells", "format": "cell-based, human", "conditions": "10 μM, on ice 20 min, FIG. 1C", "protocol": "The binding of FITC-S3 (SEQ ID NO:3) fluorescent peptide to breast cancer MDA-MB-231 cells was detected by flow cytometry. The inventors first synthesized a fluorescent peptide in which the […] and Con peptide were conjugated to a fluorescent dye FITC, and then incubated FITC-S3 (SEQ ID NO:3) fluorescent peptide with the cells, and finally detected the binding thereof by flow cytometry. The particular experimental procedure was as follows:\n1) digesting cells with trypsin, counting, and adjusting the concentration thereof to be 1.0×10^6 cells/tube, resuspending the cells with 100 μl serum-free 1640 medium;\n2) adding FITC-C or […] in PBS (10 μM), and incubating the cells on ice for binding for 20 min;\n3) washing three times with 0.1% PBST, 1 ml/time, and centrifuging at 400 g for 5 min;\n4) resuspending the cells with 500 μl PBS; and\n5) detecting by flow cytometry."}, "[5]": {"tested_on": "breast cancer MDA-MB-231 cells", "assay": "Polypeptide blocking experiment (ELISA on cells)", "format": "cell-based, human", "conditions": "5, 10, 20 μg/μl S3 polypeptide", "protocol": "An enzyme-linked immunosorbent assay was used to detect the binding of S3 phage to breast cancer MDA-MB-231 cells, and then to detect whether […] could block the binding of […] to breast cancer MDA-MB-231 cells. The specific procedure was as follows:\n2) digesting cells with trypsin, counting, and uniformly plating the cells in a 96-well plate, 1×10^4/well;\n3) in the blocking experiment, adding 5, 10, 20 μg/μl S3 polypeptide and incubating at 37° C. for 1 h;\n4) in the targeting experiment, adding phages in a concentration gradient of 1.0×10^9, 2.0×10^9, 4.0×10^9, 8.0×10^9, […] pfu/well, incubating at 37° C. for 2 h for binding; in the blocking experiment, adding 20 μg/μl of Biotin-S3 polypeptide;\n5) discarding the cell incubation solution;\n6) fixing the cells with 4% paraformaldehyde for 10 min;\n7) washing five times with 0.1% PBST, 270 μl/well;\n8) destroying the membranes with 0.1% Triton, and washing once with PBST, 270 μl/well;\n9) blocking with 5% BSA for 30 min;\n10) adding 1:1000 diluted anti-M13 conjucted HRP by 50 μl/well, and incubating at room temperature for 1 h;\n11) washing five times with 0.1% PBST;\n12) developing color with a TMB kit; and 13) reading at OD 450 nm by a microplate reader."}, "[6]": {"tested_on": "human breast cancer MDA-MB-231 cells", "assay": "Confocal laser scanning microscopy (immunofluorescence) of biotin peptide binding to cells", "format": "cell-based", "conditions": "MDA-MB-231 versus human normal breast MCF-10A cells", "source_text": "The binding of Biotin-C (Biotin-SEQ ID NO:2) and Biotin-S3 (Biotin-SEQ ID NO:1) polypeptide to human breast cancer MDA-MB-231 cells was detected by confocal laser scanning microscopy. Meanwhile, the inventors compared it with the binding of the above polypeptides to human normal breast MCF-10A cells. The particular experimental procedure was as follows:\n1) digesting cells with trypsin and plating the cells in a 24-well plate provided with a slide, 1×10^5/well;\n2) adding Biotin-C (Biotin-SEQ ID NO:2), Biotin-S3 (Biotin-SEQ ID NO:1) polypeptide to the cells, 200 μg/well, and incubating at 37° C. for 2 h;\n3) discarding the cell incubation solution;\n4) fixing the cells with 4% paraformaldehyde for 10 min;\n5) washing five times with 0.1% PBST, 500 μl/well, and washing off unbound polypeptides;\n6) destroying the membranes with 0.1% Triton, and washing once with PBST, 500 μl/well;\n7) blocking with 5% BSA, 30 min;\n8) adding anti-Biotin Streptavidin (1:1000) into the wells, and incubating at 4° C. for 12 h;\n9) washing three times with 0.1% PBST, 5 min/time;\n10) adding anti-Streptavidin conjugated FITC (1:1000) into the wells, and incubating at room temperature for 45 min;\n11) washing three times with 0.1% PBST, 5 min/time;\n12) staining cell membranes with WGA (1:1000), and incubating at room temperature for 10 min;\n13) washing three times with 0.1% PBST, 5 min/time; […]"}}, "note": "Bridge positions count the residues as written; N and C are the ends. Primed or numbered codes have the meaning given here. Ends that are not written are not given here. FITC′ = fluorescein isothiocyanate label; Cy5 = Cy5 dye label", "data": [{"substance": "Cy5-CSISSLTHC (disulfide 1-9 (inferred)) [Cy5-S3, Cy5 fluorescent S3 peptide]", "values": [{"measurement": "content of fluorescent peptide in unit weight of the tumor versus other organs", "setting": "[1]; 48 hours after tail vein injection, FIG. 2C", "value": "significantly higher than that in other organs"}, {"measurement": "enrichment in tumor by tissue analysis of dissected mice", "setting": "[1]; mouse, in vivo", "value": "significantly enriched in the tumor"}, {"measurement": "enrichment in tumors by infrared imaging of the living mice", "setting": "[1]; mouse, in vivo", "value": "obviously enriched in the tumors"}, {"measurement": "infrared fluorescent molecular imaging of esophageal cancer", "setting": "[2]", "value": "can also be used for the infrared fluorescent molecular imaging"}, {"measurement": "infrared fluorescent molecular imaging of nasopharyngeal carcinoma", "setting": "[3]", "value": "can also be used for the infrared fluorescent molecular imaging"}]}, {"substance": "CSISSLTHC-GGGS-FITC (CSISSLTHCGGGS-{FITC′}; disulfide 1-9 (inferred)) [FITC-S3, S3 peptide conjugated to fluorescent dye FITC]", "values": [{"measurement": "binding ability to breast cancer MDA-MB-231 cells versus FITC-control fluorescent peptide", "setting": "[4]", "value": "stronger than that of FITC-control fluorescent peptide"}]}, {"substance": "CSISSLTHC [Peptide S3, ATP1A1-targeting polypeptide, SISSLTH motif with Cys at both terminals]", "values": [{"measurement": "blocking of the binding of Biotin-S3 polypeptide to breast cancer cells", "setting": "[5]; 20 μg/μl Biotin-S3, FIG. 1B", "value": "can block the binding"}, {"measurement": "concentration dependence of the blocking effect", "setting": "[5]; FIG. 1B", "value": "concentration-dependent"}, {"measurement": "targeting of breast cancer cells compared to normal breast MCF-10A cells", "setting": "[6]", "value": "obvious property of targeting breast cancer cells"}]}]}
